Publication PMC10879279 (Frontiers in Behavioral Neuroscience, 2024)
“Also recorded” adds a separate entry of the source. Where two headings read alike, the source gives them in different places.

Assays:
mGluR5 = experiment: Luciferase reporter assay, mGluR5; conditions: transfected control cells; for antagonist effect on mGluR5 activity (in words): SIB 1757 10 μM + CHPG 1 mM
Experimental: Ultimately, a chemiluminescent signal is produced by the promoter-driven reporter expression that is directly proportional to activation or inhibition of a specific GPCR in the cells ([Unal, 2019]).
Briefly, the HEK293 cell line was transfected with three types of plasmids using polyethylenimine (PEI, 408727, Sigma-Aldrich, United States) 24 h prior to agonist application. Plasmid 1 encodes the GRM5–tTA fusion protein. The linker between mGluR5 and tTA is sensitive to TEV protease.^1 In case of testing the activity of LCGM-10 peptide toward mGluR1 and mGluR4, we applied the plasmids encoding GRM1-tTA^2 and GRM4-tTA^3 fusion proteins, respectively. Plasmid 2 encodes β-arrestin2–TEV protease fusion protein.^4 Plasmid 3 encodes the luciferase tTA reporter.^5 Transfected cells were treated with agonist/antagonist and incubated overnight (16 h). Antagonists were introduced 10 min prior to agonists. […] The luciferase test was performed using Promega™ Luciferase Assay Systems Kit (PR-E1500, Promega, United States) according to the manufacturer’s protocol.
Statistical analyses were performed using GraphPad Prism 9.5 (GraphPad Software, United States). The in vitro luciferase reporter assay was performed in three biological replicates and analyzed with two-way analysis of variance with the post hoc Bonferroni multiple comparison test. […] Differences between groups were considered significant at p < 0.05.

mGluR1 = experiment: Luciferase reporter assay, mGluR1; type: cell-based; conditions: DHPG 10 µM; (−)-PHCCC 40 µM; HEK293, N = 3
Experimental: (§1) Figure S5. The mGluR1- and mGliR4-luciferase reporter assay results. HEK293 cells transfected with genetic reporter systems were treated with DHPG (10 µM) or DHPG (10 µM) + (−)-PHCCC (40 µM) in the case of mGluR1 and with L-AP4 (1 µM) or L-AP4 (1 µM) + (−)-PHCCC (40 µM) in the case of mGluR4. LCGM-10 was administered at a dose of 20 and 200 µM. […] The data are presented as the mean ± standard deviation for three biological replicates (N=3 in each group). * P < 0.01 versus the transfected control + control agonist.

mGluR4 [1] = experiment: Luciferase reporter assay, mGluR4; type: cell-based; conditions: L-AP4 1 µM; (−)-PHCCC 40 µM; HEK293, N = 3
Experimental: as §1

human mGluR5 = experiment: Calcium flux imaging, CHO-mGluR5 cells; type: cell-based
From the text: mGluR5 activation leads to Ca^2+ influx that could be blocked by adding a specific antagonists or NAMs ([Kettunen et al., 2002]; [Beggiato et al., 2018]). Elevation of intracellular Ca^2+ levels via the phospholipase C pathway is typical for all Gq-coupled GPCRs ([Liu et al., 2008]) and can be detected using a penetrating Ca^2+ indicator.
The CHO cell line stably expressing human mGluR5 was generated using T-Rex System (Thermo Fisher Scientific Inc., United States) according to the manufacturer’s instructions. Briefly, complementary DNA (cDNA) encoding human mGluR5 was subcloned into the pcDNA4/TO inducible expression vector, which was transfected into CHO cells carrying the pcDNA6/TR regulatory vector that expresses the tetracycline repressor. After 2 weeks of selection using 5 μg/mL blasticidin (Thermo Fisher Scientific Inc.) and 250 μg/mL zeocin (Thermo Fisher Scientific Inc.), pools of cells were screened for the expression of mGluR5 in the agonist-induced Ca^2+ uptake assay. Positive cells were expanded and used. mGluR5 expression was induced by adding up to 1 μg/mL of tetracycline (Thermo Fisher Scientific Inc.) 16 h before testing.
Fluorescent assays were performed using NOVOstar (BMG LABTECH, Germany). CHO-mGluR5 cells were seeded into black-walled, clear-bottomed 96-well plates at a density of 75,000 cells per well (complete media without antibiotics and containing 1 μg/mL of tetracycline to induce receptor expression) and were cultured overnight at 37°C. The cells were then loaded with the cytoplasmic calcium indicator Fluo-4 AM using the Fluo-4 Direct™ Calcium Assay Kits (Thermo Fisher Scientific Inc.) and incubated in the dark at 37°C for 60 min, and then at 25°C for 60 min. The buffer alone (control) or the buffer containing different concentrations of LCGM-10 (0.02, 2, 20, and 200 μM), LCGM-15 (0.02, 2, 20, and 200 μM), or 2-methyl-6-(phenylethynyl) pyridine ([MPEP] 0.1, 1, 10, and 100 μM; Sigma-Aldrich, United States) were added to the cells (in six replicate wells). […] The measurements were performed at pH 7.4 and 37°C.

rodents = conditions: ref Guimaraes et al., 2015, cited from earlier work
From the text: Therefore, we evaluated the potential of LCGM-10 as a therapeutic in male rats submitted to the OF and EPM. […] The importance of mGluR5 for modulating motor behavior has been reported in pharmacological ([Mcgeehan et al., 2004]; [Guimaraes et al., 2015]) as well as knockout ([Gray et al., 2009]; [Jew et al., 2013]; [Ribeiro et al., 2014]) studies in rodents, with so ...

mGluR4 [2] = conditions: ref Mathiesen et al., 2003; Dalton et al., 2017; cited from earlier work
ADHD patients = conditions: cited from earlier work; for effect size of non-stimulants: medium range, smaller than stimulants, ref Cortese et al., 2018
From the text: To sum up, the development of new medications for disorders with an excessive impulsivity as a major component is of high interest for both academy and industry. Addictions, including substance use disorder and gambling, faces the unmet need for novel medicines ([Rash et al., 2016]). In case of ADHD there is also a need for new medications with novel mechanisms of action since currently approved drugs show a non-response or lack efficacy in a significant number of patients ([Mechler et al., 2022]). Routinely used stimulant methylphenidate is efficient in up to 70% of cases ([Bodey, 2011]), and ...

zebrafish [3] = system: zebrafish; design: method as in Maximino et al., 2014; conditions: similar to LCGM-10 and LCGM-15, ref Maximino et al., 2014, cited from earlier work
Wistar rats = experiment: Home cage spontaneous locomotor activity (SLA); type: in vivo, rat (Wistar)
Experimental: Wildtype D. rerio (128 fish, shortfin phenotype, 6–8 months of age, male to female ratio 50: 50) were kept in a ZebTEC recirculating system (Tecniplast S.p.a, Buguggiate, Italy), and housed under a 14/10-h photoperiod (lights on at 08: 00 and off at 22: 00). The system parameters were maintained automatically with water set at 28°C, pH 6.8–7.5, […], and constant aeration. Feeding was carried out twice a day with special food for fish (Special Diet Services, Scientific Fish Food, SDS 300–400). In total, 30 male Sprague Dawley rats were used in the behavioral screening study, and 53 male Wistar rats in the locomotion study (N = 23) and the delay discounting test (N = 30). The animals were housed under constant environmental conditions (12-h photoperiod at 22 ± 2°C) with ad libitum access to food and water. All animal experiments were conducted in accordance with the European Directive 2010/63/EU of the European Parliament (Council of 22 September 2010 on the protection of animals used for scientific purposes) and were approved by the local Bioethics Commissions. All manipulations with animals were carried out at the end of the 14-day adaptation period.
We administered LCGM peptides intranasally. Peptides were dissolved in saline at a concentration appropriate for the dosage. For administration, the rat was held in a horizontal position, with its head slightly tilted back. Then, using an automatic laboratory pipette, no more than 10 μL of the peptide solution was carefully introduced into each nostril of the rat. After visually confirming that the entire volume of liquid entered the animal’s nose, the rats were returned to their home cage. […] This route of administration has several advantages for short peptides, such as rapid systemic drug absorption and the potential to bypass the blood–brain barrier more effectively and access the central nervous system ([Pires et al., 2009]; [Lochhead and Thorne, 2012]). For patients, this method is relatively noninvasive and limits the side effects associated with peripheral administration of substances ([Meredith et al., 2015]).
Spontaneous locomotor activity (SLA) was measured using the Activiscop setup (NewBehavior Inc., Switzerland) ([Madani et al., 2003]). The animals were kept in home cages with free access to food and water. Motor activity was recorded using an infrared sensor located above each cage. The experiment lasted 2 days: On the first day, baseline activity was recorded, and then Wistar rats received LCGM-10 (5 mg/kg in saline, intranasal) and caffeine (30 mg/kg in saline, intraperitoneal) and were recorded for another 24 h. The days were divided into day 1 (12: 00–18: 59), night (19: 00–06: 59), and day 2 (07: 00–11: 59). The results are presented as the number of behavioral acts per minute (arbitrary units [a.u.]) for each animal. The experiment was performed by the Serbsky National Medical Research Center for Psychiatry and Narcology on a contract basis.

mice = system: mice; design: method as in Kobayashi et al., 2020; conditions: caffeine 25 mg/kg, ref Kobayashi et al., 2020; cited from earlier work
zebrafish [4] = conditions: ref Malyshev et al., 2021; cited from earlier work
From the text: We carried out the two most common tests to evaluate the fish response to the stressful conditions of novelty (NTT) and bright light (LDB). Figure 1 represents the summary data of the effects of the LCGM peptides on the NTT and LDB results relative to each group control, expressed as z-scores. The Supporting Information contains the examples of motor tracks (Supplementary Figures S1, S2), and primary data (Supplementary Figures S3, S4), and Table 2 provides the results of the two-way ANOVA.

animal models = conditions: ref Wooters and Bardo, 2011; cited from earlier work
From the text: (§2) Delay discounting tasks are also used to assess impulsive behavior in human studies, giving an insight into causal mechanism of addictions such as substance abuse and gambling ([Reynolds, 2006]; [de Wit, 2009]; [Hodgins and Holub, 2015]), and ADHD ([Barkley et al., 2001]; [Scheres et al., 2008]; [Shiels et al., 2009]). Impulsivity in the human and rodent delay discounting task derives form the similar neural substrates: lower D2/3 receptor availability in ventral striatum of rats and pathological gamblers, individuals with methamphetamine dependence, and alcohol use disorder ([Voon and Dalley, ...

human = conditions: ref Shiels et al., 2009; cited from earlier work
From the text: as §2

NC(C(=O)O)c1cc(O)ccc1Cl (racemic) [CHPG]
agonist effect on luciferase signal (in words) (mGluR5; CHPG 1 mM): enhanced; also recorded: induced a luciferase signal

O=C(Nc1ccccc1)C12CC1/C(=N\O)c1ccccc1O2 (single isomer, unassigned; (-)) [(−)-PHCCC]
reference ligand effect on mGluR1 (in words) (mGluR1): inhibited DHPG-induced mGluR1 activity | reference ligand effect on mGluR4 (in words) (mGluR4 [1]): enhanced L-AP4-induced mGluR4 activity

N[C@H](C(=O)O)c1cc(O)cc(O)c1 [DHPG]
reference ligand effect on mGluR1 (in words) (mGluR1): induced luciferase signals

N[C@@H](CCC(=O)O)C(=O)[O-].[Na+] [GluNa]
agonist effect on Ca2+ (in words) (human mGluR5; GluNa 1 mM vs non-activated cells, peak fluorescence, N = 7 (activated), N = 5 (basal)): enhanced fluorescence peak intensity; also recorded: enhanced Ca^2+ influx

N[C@@H](CCP(=O)(O)O)C(=O)O [L-AP4]
reference ligand effect on mGluR4 (in words) (mGluR4 [1]): induced luciferase signals

Cc1cccc(C#Cc2ccccc2)n1 [MPEP, 2-methyl-6-(phenylethynyl) pyridine]
effect on GluNa-evoked Ca2+ influx (in words) (human mGluR5; vs 1 mM GluNa, Fluo-4 AM, 3 min preincubation 37°C, pH 7.4, peak fluorescence, N = 6): effectively blocked GluNa-evoked calcium oscillations in cells at all tested doses | concentrations with significant reduction of intracellular Ca2+ levels (human mGluR5; vs activated control (1 mM GluNa), peak fluorescence, q < 0.05, N = 6 each): 0.1 to 100 µM | effect on locomotion (in words) (rodents; applied to olfactory bulbs, dorsolateral striatum, dorsal hippocampus): stimulatory effect on locomotion | brain regions without locomotor stimulation (in words) (rodents; local application): not primary motor area and ventral striatum | PAM activity at mGluR4 (in words) (mGluR4 [2]): able to act as PAMs of mGluR4

Cc1nc(C#Cc2cccnc2)cs1 [MTEP]
PAM activity at mGluR4 (in words) (mGluR4 [2]): The effect is not observed

Cc1ccc(O)c(N=Nc2ccccc2)n1 [SIB 1757]
PAM activity at mGluR4 (in words) (mGluR4 [2]): The effect is not observed | antagonist effect on mGluR5 activity (in words) (mGluR5): inhibited mGluR5 activity | antagonist effect on mGluR5 activity (in words) (mGluR5; listed as SIB1757): depleted

Cc1cccc(/C=C/c2ccccc2)n1 [SIB-1893]
PAM activity at mGluR4 (in words) (mGluR4 [2]): able to act as PAMs of mGluR4

CNCC[C@@H](Oc1ccccc1C)c1ccccc1 [atomoxetine]
effect size of non-stimulants (ADHD patients): ≤ 60%

CC(NC(C)(C)C)C(=O)c1cccc(Cl)c1 (stereo not shown) [bupropion]
effect on locomotion (in words) (zebrafish [3]; bupropion 30 mg/kg): motor-stimulating effects

Cn1c(=O)c2c(ncn2C)n(C)c1=O [caffeine]
SLA at night (in words) (Wistar rats; LCGM-10 5 mg/kg intranasal or caffeine 30 mg/kg intraperitoneal, night (19:00–06:59), F2, 20 = 0.6, p = 0.56): no effects of treatment on the nighttime activity | duration of SLA increase after administration (Wistar rats; LCGM-10 5 mg/kg intranasal, caffeine 30 mg/kg intraperitoneal, 30-min intervals): up to 90 min | SLA on day 1 (in words) (Wistar rats; caffeine 30 mg/kg intraperitoneal, day 1 (12:00–18:59), N = 7–8): enhanced SLA; also recorded: significant induction of SLA | SLA on day 2 (in words) (Wistar rats; caffeine 30 mg/kg intraperitoneal, day 2 (07:00–11:59), N = 7–8): hypokinesia; also recorded: significant reduction in SLA | hypokinetic rebound (in words) (Wistar rats; single administration, LCGM-10 compared with caffeine): followed by a locomotor depression | effect on locomotion (in words) (zebrafish [3]; caffeine 10 mg/kg): motor-stimulating effects | duration of SLA increase (mice): up to 3 h

Clc1cccc(Cl)c1N=C1NCCN1 [clonidine]
effect size of non-stimulants (ADHD patients): ≤ 60%

CN1C(=O)CN=C(c2ccccc2)c2cc(Cl)ccc21 [diazepam]
anxiolytic-like activity (in words) (zebrafish [4]): anxiolytic-like activity

N=C(N)NC(=O)Cc1c(Cl)cccc1Cl [guanfacine]
effect size of non-stimulants (ADHD patients): ≤ 60%

COC(=O)C(c1ccccc1)C1CCCCN1 (stereo not shown) [methylphenidate]
discounting of delayed rewards (in words) (animal models): reduced discounting of delayed rewards | discounting of delayed rewards (in words) (human): reduced discounting of delayed rewards | efficient in percent of cases (ADHD patients; ref Bodey, 2011): up to 70%
